Assay results reported in US20100285959A1, “HERBICIDAL MIXTURES” (priority 2006, published 2010).

How the values were obtained:
flint corn (ZEAMI) = assay: Test 11 field trial, preemergence; type: in vivo, Zea mays L. ssp. indurata; design: scale not given here; settings: atrazine 1500 or metolachlor 2500 g a.i./ha alone
From the text: Corn seeds (hybrid ‘Pioneer 3041’) were planted in mid spring season, 5 cm deep in a clay soil having 2.6% organic matter and a pH of 5.6. Plots were 8 m long by 1.5 m wide with rows spaced 80 cm apart. Seeds were spaced 15 cm apart within the rows. The field was managed using conventional tillage practices. […] Treatments consisted of Compound 2 or
Goosegrass was not evaluated 16 or 91 days after application.

common purslane (POROL) = assay: Test 12 field trial, preemergence; type: in vivo, Portulaca oleracea; settings: Cpd 2 or Cpd 1 62 g a.i./ha, Diuron 2000 g a.i./ha
From the text: (§1) In early-mid spring season, corn seeds (hybrid ‘Pioneer 3041’) were planted 5 cm deep and sugarcane nodes (variety RB-72.454) were planted 10 cm deep in separate plots in a clay soil having 2.6% organic matter and a pH of 5.6. Plots were 24 m long by 1.5 m wide with rows spaced 80 cm (corn) or 140 cm (sugarcane) apart. Corn seeds were spaced 15 cm apart and sugarcane nodes were spaced 10 cm apart within the rows. At the same time, weed seeds were broadcast over the surface of separate plots without a crop, one weed species per plot. The weed plots were rotary tilled to incorporate the weed seeds to a variety of depths. The field was managed using conventional tillage practices.

rice (ORYSA) = assay: Test 32 greenhouse, simulated flooded rice culture; type: in vivo, Oryza sativa; settings: postemergence to flood, 21 DAA
Method: A greenhouse trial was conducted to evaluate the effects of Compound 1 and isoxadifen-ethyl at different ratios in simulated flooded rice culture. Plastic pots (11-cm diameter) were partially filled with non-sterilized Tama silt loam soil containing a 15:57:28 ratio of sand, silt and clay and 2.9% organic matter. Seeds of Heteranthera limosa (ducksalad; HETLI), Cyperus difformis (smallflower umbrella sedge; CYPDI), one stand of Echinochloa crus-galli (barnyardgrass; ECHCG), and one stand of four rice seedlings (Oryza sativa cv. ‘M202’; ORYSA) were planted into a single 11-cm diameter pot for each rate and mixture of rates. To obtain this planting, C. difformis and H. limosa seeds were planted separately on the surface soil layer at particular locations within each pot. Water levels were brought to a puddled condition above the soil surface directly after planting. E. crus-galli and rice seeds were planted in cavity trays in the silt loam soil and transplanted at the 1.5 and 2.0 leaf stage, respectively. E. crus-galli and rice plants were transplanted to about 2-cm depth by transferring plugs from the cavity trays. Plantings were sequential so that these plant species all reached the 2.0- to 2.5-leaf stage in the 11-cm diameter pot at time of treatment. Plantings were established and maintained in a greenhouse with day and night temperatures of about 29.5 and 26.7° C. respectively; supplemental balanced lighting was provided to maintain a 16-hour photoperiod. Pots were fertilized periodically with a 200 ppm solution of commercial Scotts Peters® Professional® General Purpose 20-20-20 Water Soluble Fertilizer, amended to 10 ppm with a commercial iron-chelate micronutrient fertilizer. The solution was supplied at time of watering via a liquid fertilizer injector.
At treatment time, test pots were flooded to 3 cm above the soil surface and maintained at that water depth for the duration of the test. Chemical treatments were formulated in acetone and applied directly to the paddy water (i.e., postemergence to flood). Make-up volumes of acetone were added to ensure that all pots were treated with a consistent volume. Test pots were maintained in the greenhouse. A randomized complete block design was employed. Five replicates of each treatment, alone and in mixture, were used. Each species was visually evaluated for treatment effects by comparing those treated to untreated controls and rated for plant response after 21 days.

[1] = tested on: Ipomoea grandiflora (IPOGF); assay: Test 12 field trial, preemergence; type: in vivo; design: scale not given here; settings: Cpd 2 or Cpd 1 62 g a.i./ha, Diuron 2000 g a.i./ha
From the text: as §1

wild spikenard (HPYSU) = assay: Test 12 field trial, preemergence; type: in vivo; design: scale not given here; settings: Cpd 2 or Cpd 1 62 g a.i./ha, Diuron 2000 g a.i./ha
From the text: as §1

giant ragweed (AMBTR) = assay: Test 26 field trial, postemergence; type: in vivo, Ambrosia trifida
From the text: Corn seeds (hybrid ‘Pioneer 31G96’) were planted in mid spring season, 3.8 cm deep in a silt loam soil having 2% organic matter and a pH of 6.6. Plots were 6.1 m long by 3.0 m wide with rows spaced 76 cm apart. Seeds were spaced 15 cm apart within the rows. The field was managed using conventional tillage practices. […] All treatments also included a surfactant. […] Some of the weed species could not be evaluated at every timing. […] Results are the means of the three replicates.

spring wheat (TRZAS) = assay: Test 4 field trial, postemergence
Method: A field trial was conducted to evaluate the effects of mixtures of Compound 2 with commercial herbicides on spring wheat (TRZAS, Triticum aestivum L.) and several weed species. Wheat seeds (cv. ‘AC Intrepid’) were planted in late spring season, 3.8 cm deep in a loam soil having 2.7% organic matter and a pH of 7. Plots were 6 m long by 2.5 m wide. The field was managed using no-till practices. The plots were arranged in a randomized complete block design with each treatment being replicated four times. Treatments were applied postemergence 25 days after planting using a backpack sprayer delivering a spray volume of 55 L/ha using a pressure of 276 kPa. […] Compound 2 and clodinafop treatments, alone and in combination, also included a surfactant. Weed species present in the experimental plots in sufficient quantity to be evaluated included wild oat (AVEFA, Avena fatua L.), common lambsquarters (CHEAL, Chenopodium album L.), kochia (KCHSC, Kochia scoparia (L.) Schrad.), wild buckwheat (POLCO, Polygonum convolvulus L.), Russian thistle (SASKR, Salsola kali L. ssp. ruthenica (Iljin) Soo), and field pennycress (THLAR, Thlaspi arvense L.). […] Common lambsquarters was evaluated only at 14 days after application. […] Results are the means of the four replicates.

Row | SMILES | POROL Obs (common purslane (POROL); 15 DAA) | POROL Obs (common purslane (POROL); 29 DAA) | POROL Obs (common purslane (POROL); 48 DAA) | POROL Obs (common purslane (POROL); 61 DAA) | IPOGF Obs ([1]; 15 DAA) | IPOGF Obs ([1]; 29 DAA) | IPOGF Obs ([1]; 48 DAA) | IPOGF Obs ([1]; 61 DAA) | HPYSU Obs (wild spikenard (HPYSU); 15 DAA) | HPYSU Obs (wild spikenard (HPYSU); 29 DAA) | HPYSU Obs (wild spikenard (HPYSU); 48 DAA) | HPYSU Obs (wild spikenard (HPYSU); 61 DAA) | also measured
1 | CCNc1nc(Cl)nc(NC(C)C)n1 [Atrazine, atrazine, reference compound] |  |  |  |  |  |  |  |  |  |  |  |  | ZEAMI Obs (flint corn (ZEAMI); 16 DAA): 0; ZEAMI Obs (flint corn (ZEAMI); 30 DAA): 0; ZEAMI Obs (flint corn (ZEAMI); 44 DAA): 0; ZEAMI Obs (flint corn (ZEAMI); 62 DAA): 0; ZEAMI Obs (flint corn (ZEAMI); 91 DAA): 0
2 | Nc1nc(C2CC2)nc(C(=O)O)c1Cl [Compound 1, 6-amino-5-chloro-2-cyclopropyl-4-pyrimidinecarboxylic acid] | 90 | 97 | 100 | 100 | 60 | 70 | 60 | 40 | 60 | 60 | 70 | 50 | ORYSA Obs (rice (ORYSA); Cpd 1 31.25 g a.i./ha): 9%; ORYSA Obs (rice (ORYSA); Cpd 1 62.5 g a.i./ha): 15%; ORYSA Obs (rice (ORYSA); Cpd 1 125 g a.i./ha): 27%
3 | COC(=O)c1nc(C2CC2)nc(N)c1Cl [Compound 2, methyl 6-amino-5-chloro-2-cyclopropyl-4-pyrimidinecarboxylate] | 60 | 75 | 90 | 90 | 50 | 60 | 40 | 40 | 60 | 60 | 50 | 40 | AMBTR Obs (giant ragweed (AMBTR); 14 DAA, 30 g a.i./ha): 97; AMBTR Obs (giant ragweed (AMBTR); 28 DAA, 30 g a.i./ha): 100; AMBTR Obs (giant ragweed (AMBTR); 28 DAA, 45 g a.i./ha): 100; AMBTR Obs (giant ragweed (AMBTR); 28 DAA, 60 g a.i./ha): 100; TRZAS Obs (spring wheat (TRZAS); 14 DAA, Cpd 2 30 g a.i./ha alone or with clodinafop 56 or fenoxaprop 90): 0; TRZAS Obs (spring wheat (TRZAS); 14 DAA, Cpd 2 60 g a.i./ha alone or with clodinafop 56 or fenoxaprop 90): 0; TRZAS Obs (spring wheat (TRZAS); 35 DAA, Cpd 2 30 g a.i./ha alone or with clodinafop 56 or fenoxaprop 90): 2; TRZAS Obs (spring wheat (TRZAS); 35 DAA, Cpd 2 60 g a.i./ha alone or with clodinafop 56 or fenoxaprop 90): 6; TRZAS Obs (spring wheat (TRZAS); 55 DAA, Cpd 2 30 g a.i./ha alone or with clodinafop 56 or fenoxaprop 90): 3; TRZAS Obs (spring wheat (TRZAS); 55 DAA, Cpd 2 60 g a.i./ha alone or with clodinafop 56 or fenoxaprop 90): 11
